What was measured:
U-937 cells = experiment: Production of IL-12p70 and IL-10 by the dendritic cells (ELISA); type: cell-based, human
Method: The culture supernatants are frozen at a temperature of −80° C. until the time of testing for the presence of cytokines. The presence of IL-12p70 and IL-10 is measured using ELISA kits obtained from “Endogen” (Woburn, Mass., USA).
This phenomenon continues for the two weeks of treatment.

[1] = tested on: T lymphocytes originating from BALB/c mouse spleens; experiment: Proliferation of T lymphocytes (tritiated thymidine incorporation); type: cell-based; conditions: C57BL/6 dendritic cells in contact with BALB/c T lymphocytes
Method: C57BL/6 mouse monocytes were collected as indicated in example 48.1. The dendritic cells were obtained as indicated in example 9. After transformation into CDs with the test compound, the cells are treated with an antimitotic agent (mitomycin C at 0.0006 mg/ml) and incubated for 30 minutes at 37° C., in order to block DNA synthesis in the CDs. After this treatment, the cells are washed twice with RPMI 1640 medium supplemented with 10% fetal calf serum.
BALB/c mouse spleens were also collected and treated as described for the preparation of the C57BL/6 mouse monocytes. The nonadherent cells, which contain the T lymphocytes, are recovered and added to the C57BL/6 mouse dendritic cells. On the fourth day of contact of the cells, tritiated thymidine is added. After incubation for 18 hours, the cells are lyzed with absolute alcohol. The precipitate is suspended in water and then filtered through a cellulose filter. The incorporation of thymidine is measured by scintillation counting (Packard Instrument, Meriden Conn., USA).
The adherent monocytes originating from mouse spleens obtained according to example 14.1 were treated with the abovementioned compound at variable doses. […] The lymphocyte proliferation is measured by measuring the incorporation of tritiated thymidine into the DNA.

**Q.** Which “production of the p70 subunit of IL-12” value (U-937 cells; from 36 hours after the start of the treatment, continues for the two weeks of treatment) does the source give for `CC(C)CCC[C@@H](C)[C@H]1CC[C@H]2[C@@H]3C[C@@H](NCCc4c[nH]cn4)[C@@]4(O)C[C@@H](O)CC[C@]4(C)[C@H]3CC[C@]12C` [Example 9, cholestane-3β,5α-diol-6β-N-[2-ethylamino(1H-imidazol-4-yl)]] here?
**A.** stimulates the production of the p70 subunit of IL-12

**Q.** What about the “transcription/production of IL-10” value (U-937 cells; treatments extending over a period of two weeks) of the same compound?
**A.** does not stimulate the transcription of IL-10

**Q.** And the “stimulation of the T lymphocyte proliferation (factor)” value [1]?
**A.** 5

Source: patent publication US7947668B2, “Aminoalkyl sterol compounds having an anti-tumoral and neuroprotective activity” (Institut National de la Sante et de la Recherche Medicale, priority 2002, dated 2011)
